The values below come from patent US6191152A, “2-(1,2,4-triazole-1-yl)-1,3,4-thiadiazole derivatives having an effect on the C.N.S. and the heart” (EGIS Gyogyszergyar Rt., priority 1997, dated 2001).

In assay [1] the test system is isolated rat thoracic aorta. Nature of the assay: Vascular relaxing effect in isolated rat thoracic aorta contracted with 40 mM potassium chloride (diltiazem). The following applies: 40 mM KCl contracted strips, 37° C., read-out: IC50 (vascular relaxation in isolated rat thoracic aorta). On the set-up: species or system rat (male SPRD). The method, then: Experiments were performed in thoracic aortas obtained from male SPRD rats weighing 250 to 300 g. Thoracic aortas excised from rats killed by decapitation and ensanguination were cleaned of fat and connective tissue, then were immediately placed in carbogenized TYRODE solution. The composition of the normal TYRODE solution was the following (in mM): NaCl 114.7, KCl 3.7, CaCl2 3.6, MgCl2 0.49, NaHCO3 19.9, NaH2 PO4 0.32, glucose 5.1.
Two mm wide and 20 to 25 mm long strips were cut from the aortas along a helical line at 45° angle. Aortic strips were mounted vertically between two cotton threads in 10 ml organ chambers, the lower threads were attached to the organ chambers and the upper threads were connected to isometric force transducers. The strips were incubated under 1 g resting tension at 37° C. for 120 minutes, then resting vascular tone was recorded. […]
When stable vascular tone developed, increasing doses of the test substance were added to the organ bath. The effects of each test substance were measured at least in 3 tissue preparations obtained from different animals. Decreases in vascular tension caused by the test substances were expressed as percentage changes and IC50 for each tissue preparation was determined by sigmoid (in few casses linear) curve fitting. […]

The target of another assay is T1, 5-HT2A receptor (Rattus norvegicus, UniProt P14842).
T1 construct: rat brain frontal cortex membrane preparation; from tissue; host or cells: rat brain frontal cortex membranes
Description: 5-HT2A receptor binding, rat brain frontal cortex membrane, tritiated ketanserine. Conditions: read-out: Inhibition of receptor binding of the radioactive ligand (Ki), 5-HT2A. The method, then: (§1) 4) 5-HT2A and 5-HT2C Receptor Binding Studies
(§2) 5-HT2A and 5-HT2C receptor binding was measured according to the methods described by Leysen et al. /Mol. Pharmacol., 21, 301 (1981)/and Pazos et al. /Eur. J. Pharmacol., 106, 539 (1985)/, respectively. 5-HT2A receptor binding was measured in rat brain frontal cortex membrane preparation using tritiated ketanserine /3-/2-(4-fluorobenzoyl)-1-piperidinyl/ethyl-2,4-(1H,3H)-quinazolinedione/ (60-90 Ci/mmole) as ligand. 5-HT2C receptor binding was measured in pig brain choroid plexus membrane-preparation using tritiated mesulergine /N'-/(8)-1,6-dimethylergoline-8-yl/-N,N-dimethylsulfamide (70-85 Ci/mmole) as the ligand. Non-specific binding to 5-HT2A and 5-HT2C receptors were determined in the presence of 10 micromoles of cyproheptadine /4-(5H-dibenzo/a,d/cycloheptene-5-ylidene)-1-methylpiperidine/and 1 micromole of mianserine /1,2,3,4,10,14b-hexahydro-2-methyldibenzo/c,f/pyrazino/1,2-a/azepine/, respectively. The final incubation volumes were 250 and 1000 microlitres. Samples were incubated for 15 and 30 minutes at 37° C. Incubation was stopped by adding 9 ml of ice-cold 50 mr- tris(hydroxymethyl)aminomethane hydrochloride (pH=7.7) to the reaction mixture. The samples were rapidly filtered through whatman GF/B glass fiber filters using reduced pressure. […] Radioactivity of the filters was determined by a scintillation spectrometer.

The target of another assay is T2, 5-HT2C receptor (Sus scrofa, UniProt K7GSR7).
T2 construct: pig brain choroid plexus membrane-preparation; from tissue; host or cells: pig brain choroid plexus membranes
T2 sequence (K7GSR7 1-457): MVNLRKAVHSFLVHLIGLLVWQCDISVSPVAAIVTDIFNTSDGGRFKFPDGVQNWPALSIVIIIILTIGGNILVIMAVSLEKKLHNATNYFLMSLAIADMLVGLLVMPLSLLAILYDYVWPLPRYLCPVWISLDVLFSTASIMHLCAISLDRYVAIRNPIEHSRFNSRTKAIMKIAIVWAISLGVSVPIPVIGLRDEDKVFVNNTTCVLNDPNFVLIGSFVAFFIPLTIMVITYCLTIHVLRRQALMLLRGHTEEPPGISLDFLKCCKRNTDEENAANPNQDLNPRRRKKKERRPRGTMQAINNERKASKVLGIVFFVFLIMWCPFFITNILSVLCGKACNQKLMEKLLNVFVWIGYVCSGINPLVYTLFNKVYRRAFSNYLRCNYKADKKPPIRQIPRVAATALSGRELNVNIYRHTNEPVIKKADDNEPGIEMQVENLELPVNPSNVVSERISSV
Nature of the assay: 5-HT2C receptor binding, pig brain choroid plexus membrane, tritiated mesulergine. The following applies: read-out: Inhibition of receptor binding of the radioactive ligand (Ki), 5-HT2C. The procedure: as §1, §2

A further assay relates to human beings. Conditions: Ceulemans et al.; cited from earlier work.

T1 sequence (P14842 whole entry): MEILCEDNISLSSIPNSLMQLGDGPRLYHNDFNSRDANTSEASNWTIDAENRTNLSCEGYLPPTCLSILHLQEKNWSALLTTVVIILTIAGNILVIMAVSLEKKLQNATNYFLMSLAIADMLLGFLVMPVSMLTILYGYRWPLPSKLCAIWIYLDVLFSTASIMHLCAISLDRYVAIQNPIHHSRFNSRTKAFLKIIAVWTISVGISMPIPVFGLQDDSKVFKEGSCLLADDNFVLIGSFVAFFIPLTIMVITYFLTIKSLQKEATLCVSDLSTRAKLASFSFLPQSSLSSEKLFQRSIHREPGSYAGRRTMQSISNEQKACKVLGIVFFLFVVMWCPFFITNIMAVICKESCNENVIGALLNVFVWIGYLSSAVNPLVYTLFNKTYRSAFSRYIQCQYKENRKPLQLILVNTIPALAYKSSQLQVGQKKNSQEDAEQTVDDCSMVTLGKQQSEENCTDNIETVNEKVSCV

For orientation: IC50 means the point on the concentration scale where inhibition reaches its midpoint. Turning to `COc1ccc([C@@H]2Sc3ccccc3N(CCN(C)C)C(=O)[C@@H]2OC(C)=O)cc1` [diltiazem, (2S)-cis-3-acetyloxy-5-(2-dimethylamino-ethyl)-2,3-dihydro-2-(4-methoxyphenyl)-1,5-benzothiazepine-4(5H)-one], the IC50 in assay [1] amounted to 150 nM. A word on the Ki: it is the equilibrium dissociation constant of an inhibitor or competing ligand from its target. For `COc1ccc(CCN(C)CCCOc2ccccc2-c2nnc(-n3nc(SC)nc3N)s2)cc1OC` [Example 98, 2-(5-Amino-3-methylthio-1H-1,2,4-triazole-1-yl)-5-{2-[3-methyl-3-/ 2-(3,4-dimethoxyphenylethyl)amino/propoxy]phenyl}-1,3,4-thiadiazole], the results for the Ki at 5-HT2A receptor and at 5-HT2C receptor were above 1000 nM and 24 nM, respectively.

With `CN(C)CCCOc1ccccc1-c1nnc(-n2nc(N3CCCC3)nc2N)s1` [Example 44, 2-(5-Amino-3-pyrrolidino-1H-1,2,4-triazole-1-yl)-5-/ 2-(3-dimethylaminopropoxy)phenyl/-1,3,4-thiadiazole], the results for the Ki on 5-HT2A receptor and at 5-HT2C receptor were above 100 nM and 50 nM, respectively. Take `Cc1nc2sccn2c(=O)c1CCN1CCC(=C(c2ccc(F)cc2)c2ccc(F)cc2)CC1` [ritanserin, 6-[2-/4-bis(4-fluorophenyl)-methylene/ -1-piperidinylethyl]-7-methyl-5H-thiazolo/3,2-a/pyrimidine-5-one]: in the assay on human beings, the “treatment of different forms of human anxiety” value is “proved to be effective for the treatment of different forms of human anxiety”.
